Type in all cases: in vivo, human
The test system of experiment [1] is 8-iso-PGF2α. The experiment in a line: Serum isoprostanes (8-iso-PGF2α-III) enzyme immunoassay, post-prandial cross-over study. Particulars: healthy subjects (n=20), 20 mg immediately before lunch, T120 vs T0. The protocol:
(§1) The design was a randomized, double blind, placebo controlled, crossover study (FIG. 1). Participants were randomized to receive 20 mg of oleuropein or 20 mg of placebo immediately before a lunch. The randomization was carried out by a procedure based on a random numeric sequence. Placebo and active capsules were identical in appearance and both were odourless. The quality control on both capsules was performed confirming their safety. None of the participants were receiving any vitamin or antioxidant supplements, statin or antiplatelet drugs in the month preceding the beginning of the study. Others exclusion criteria were: i) presence of malignancy, ii) presence of chronic inflammatory diseases, iii) alcohol intake, iv) smoking, v) pregnant or breast-feeding, vi) age less than 18 years. […] Participants were assessed at baseline (T0) and two hours after lunch (T120). Glycaemic profile, which included glucose, insulin, dipeptidyl-peptidase-4 (DPP-4) activity and glucagon-like peptide-(GLP-1) and oxidative stress, which included sNox2-dp, 8-iso-PGF2α and platelet p47phox phosphorylation, were analysed before and two hours after meal. […]
Serum isoprostanes (8-iso-PGF2α-III) were measured by the enzyme immunoassay method (DRG International) and expressed as pmol/L. Intra-assay and inter-assay coefficients of variation were <10%.

The subject of experiment [2] is DPP-4. The experiment in a line: Serum dipeptidyl peptidase-4 (DPP-4) activity, post-prandial cross-over study. Particulars: healthy subjects (n=20), 20 mg immediately before lunch, T120 vs T0. The protocol: as §1
DDP4 activity was evaluated in serum samples by a commercial assay (Sigma Aldrich). […] DDP4 activity was expressed as μU/ml, where one unit of DPP4 is the amount of enzyme that will hydrolyze the DPP4 substrate to yield 1.0 μmole of AMC per minute at 37° C.

The test system of experiment [3] is p47phox. The experiment in a line: Western blot analysis of platelet p47phox phosphorylation, post-prandial cross-over study. As to conditions: healthy subjects (n=5), 20 mg immediately before lunch, T120 vs T0. The protocol: as §1, with “study.” for “study. Others exclusion criteria were: i) presence of malignancy, ii) presence of chronic inflammatory diseases, iii) alcohol intake, iv) smoking, v) pregnant or breast-feeding, vi) age less than 18 years.”
p47^phox phosphorylation was analysed in platelets prepared as previously described [13 Carnevale et al., 2014 a)]. […] Then, the membranes were incubated with goat anti-rabbit secondary antibody (Santa Cruz Biotechnology—Product Code sc2004, 1:5000) or with goat anti-mouse secondary antibody (Santa Cruz Biotechnology—Product Code sc2005, 1:5000) and then the immune complexes were detected by enhanced chemiluminescence substrate. […]

The subject of experiment [4] is GLP1. The experiment in a line: Serum glucagon like peptide-1 (GLP1) concentration, post-prandial cross-over study. As to conditions: healthy subjects (n=20), 20 mg immediately before lunch, T120 vs T0. Here is the method:
as §1
Commercial ELISA Kit (DRG International) was used for the quantitative determination of bioactive GLP1 (7-36) and (9-36) levels in serum. GLP1 values are expressed as pmol/L.

For experiment [5], the system named is insulin. The experiment in a line: Serum insulin concentration, post-prandial cross-over study. As to conditions: healthy subjects (n=20), 20 mg immediately before lunch, T120 vs T0. Here is the method:
as §1
(§2) Glucose and insulin were measured in serum samples using ELISA commercial Kit (Arbor Assay and DRG International, respectively). Glucose values were expressed as mg/dl whereas insulin values were expressed as μIU/ml.

Experiment [6] can be described thus: Serum glucose concentration, post-prandial cross-over study. Here is the method:
as §1, §2

In experiment [7] the test system is Nox2. Briefly: Serum Nox2 measured as soluble Nox2-derived peptide (sNox2dp) by ELISA, post-prandial cross-over study. Particulars: healthy subjects (n=20), 20 mg immediately before lunch, T120 (2 h after meal) vs T0. Here is the method:
as §1, with “study.” for “study. Others exclusion criteria were: i) presence of malignancy, ii) presence of chronic inflammatory diseases, iii) alcohol intake, iv) smoking, v) pregnant or breast-feeding, vi) age less than 18 years.”
Serum Nox2 was measured as soluble Nox2-derived peptide (sNOX2dp) with an ELISA method, which was partly modified in comparison to that previously reported (Pignatelli et al., 2010; WO 2010142794 A1). […]
4) quantification of immobilized antibody enzyme conjugates by monitoring HRP activities in the presence of the substrate 3,3′,5,5′-tetramethylbenzidine (TMB). […] Values were expressed as pg/ml; intra-assay and inter-assay coefficients of variation were <10%.

As to `C/C=C1/[C@H](O[C@@H]2O[C@H](CO)[C@@H](O)[C@H](O)[C@H]2O)OC=C(C(=O)OC)[C@H]1CC(=O)OCCc1ccc(O)c(O)c1` [oleuropein], the “8-iso-PGF2α, Δ change compared to baseline” value in experiment [1] came out at 8%. Moreover, the “DPP-4 activity, Δ change compared to baseline” value in experiment [2] turned out to be 35%. For the same compound, in experiment [3], the “platelet p47phox phosphorylation, Δ change compared to baseline” value came to 42%. Besides, in experiment [4], the “GLP1, Δ change compared to baseline” value amounted to 19%. The “blood insulin, Δ change compared to baseline” value in experiment [5] was 116%. Moreover, the “blood glucose, Δ change compared to baseline” value in experiment [6] (healthy subjects (n=20), 20 mg immediately before lunch, T120 vs T0) turned out to be 2%. For the same compound, in experiment [6] (healthy subjects, 20 mg versus placebo, post-prandial), the “average reduction of glucose” value came out at 14 mg/dL. The “sNox2-dp, Δ change compared to baseline” value in experiment [7] amounted to 25%.

For the origin of these results see patent US20210169910A1, “OLEUROPEIN FOR USE IN REDUCING POST-PRANDIAL GLYCAEMIA” (Università degli Studi di Roma "La Sapienza", priority 2017, published 2021).
